According to patent US12163169B2, “Inducible chimeric cytokine receptors” (Allogene Therapeutics, Inc., priority 2018, dated 2024):
“Also recorded” adds a separate entry of the source.

What was measured:
CAR T cells = assay: Target-independent AP1903-driven CAR T cell expansion, 2-week culture (Example 11); format: cell-based, human; details: FKBP switch CAR T cells, IL7R(316-459)/IL12Rb2(775-825) cytotails; reference IL-7 and IL-12p70 10 ng/mL each; 2 weeks
Procedure: Control CAR T cells or FKBP switch CAR T cells bearing IL7R(316-459)/IL12Rb2(775-825) cytotails were cultured with the indicated concentrations of AP1903, and in the absence of exogenous cytokines (unless specified in the case of positive controls) or target cells for 2 weeks. As a positive control, CAR T cells were alternatively supplemented with exogenous recombinant IL-7 (10 ng/mL; Miltenyi) and IL-12p70 (10 ng/mL; Biolegend) to mimic the dual IL-7R/IL12Rb2 outputs transmitted by FKBP switch activation. At the end of the 2-week culture, the number and quality of surviving CAR T cells were determined. Briefly, duplicate samples from each culture condition cells were harvested and stained using the Zombie NIR Fixable Viability Kit (Biolegend). Samples were washed with PBS, Fc blocked, then stained with the following antibody cocktail diluted in PBS+1% BSA: BUV395-conjugated anti-human CD3, BV510-conjugated anti-human CD8, BV605-conjugated human CD4 and FITC-conjugated v5 tag (for CAR detection), PE/Cy7-conjugated anti-human CD62L (Biolegend) and BV785-conjugated anti-human CD45RO (Biolegend). Finally, samples were washed in PBS and cell pellets were resuspended in 130 uL PBS+1% BSA containing 123count eBeads counting beads (Thermo Fisher) (10 uL counting beads in 120 uL PBS+1% BSA) prior to FACS analysis.

[1] = target: FKBP12 containing the F36V mutation (Homo sapiens, UniProt P62942, F37V); details: literature (Jemal 2008; Scher and Kelly 1993); cited from earlier work
[2] = target: T1, BCMA ectodomain cytokine receptor (Homo sapiens, UniProt Q02223); assay: HEK293T Stat reporter assay of BCMA ectodomain cytokine receptor with soluble APRIL trimers (Example 14); format: cell-based; details: 5 hours post-treatment; FIGS. 37C-37D
T1 construct: such as BCMA(1-54), TACI(1-165) and BAFFR(1-78); expressed in transfected cells; host or cells: HEK293T
T1 sequence (Q02223 1-54): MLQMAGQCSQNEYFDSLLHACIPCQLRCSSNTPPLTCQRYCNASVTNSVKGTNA
Source text: To test if the panel of ligand inducers and ectodomains can be further extended beyond the AP1903-FKBP(F36V) pairing, we tested signaling in response to other multimeric ligand inducers. As the Tumor Necrosis Family (TNF) superfamily of ligands are trimers, they engage their respective receptors in a multimeric fashion. Therefore, we fused ectodomains derived from the TNFR2 superfamily receptors, such as BCMA(1-54), TACI(1-165) and BAFFR(1-78), to the transmembrane and signaling domains of our chimeric cytokine receptors, and tested signaling in response to soluble trimeric ligand. Briefly, 20,000 HEK293T cells were plated into each well of a poly-L-lysine-coated 96-well flat-bottom plate and allowed to adhere overnight. The chimeric cytokine receptor (2.5 ng), a Stat response element that drives Firefly Luciferase (100 ng; Promega) and Renilla Luciferase control reporter vector (1 ng; Promega) were mixed in a final volume of 5 uL in Opti-MEM (Gibco) (“DNA mix”). 0.3 uL Lipofectamine 2000 (Invitrogen) in 5 uL Opti-MEM was incubated at room temperature for 5 minutes and then added to the DNA mix. […] 24 hours after transfection, cells were either left untreated, or treated with soluble BAFF or APRIL trimers diluted in serum-free media, and Stat reporter activity was determined 5 hours post-treatment using the Dual-Glo Luciferase Assay System (Promega). […]

Chain of FKBP12 containing the F36V mutation (P62942 2-108 F37V): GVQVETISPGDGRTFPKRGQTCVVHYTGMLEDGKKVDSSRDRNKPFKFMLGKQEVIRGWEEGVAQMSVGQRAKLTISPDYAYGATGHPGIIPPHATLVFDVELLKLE

Compound	AP1903 concentration sufficient to reach the level of expansion achieved by exogenous cytokine supplementation (CAR T cells) [ng/mL]	binding affinity to FKBP12 containing the F36V mutation [1]	downstream Stat activation [2]
CC[C@H](C(=O)N1CCCC[C@H]1C(=O)O[C@H](CCc1ccc(OC)c(OC)c1)c1cccc(OCC(=O)NCCNC(=O)COc2cccc([C@@H](CCc3ccc(OC)c(OC)c3)OC(=O)[C@@H]3CCCCN3C(=O)[C@@H](CC)c3cc(OC)c(OC)c(OC)c3)c2)c1)c1cc(OC)c(OC)c(OC)c1 [AP1903]	≤ 1	high affinity; also recorded: much higher affinity than wild-type FKBP12	–
APRIL: soluble APRIL trimers, TNF superfamily ligand	–	–	induced downstream Stat activation
